# Reference: PubChem BioAssay AID248 (DTP/NCI, 2004)
# Values joined by “and” are separate entries in the source; they are usually repeats but may differ in a detail not shown here. Equal entries are not always repeated. Inconclusive results and toxic doses are left out.
# Test system: L1210 leukemia ip in BDF1 mice, survival T/C
# Assay: NCI In Vivo Anticancer Drug Screen. Data for tumor model L1210 Leukemia (intraperitoneal) in B6D2F1 (BDF1) mice
# Conditions: endpoint: mean survival time, higher = longer survival
# How it was run: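 Each compound was tested against a transplantable tumor grown in mice. The endpoint was survival, with treated animals benchmarked against vehicle controls as a simple ratio.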
# [1] = dose: 100.0 mg/kg/injection, schedule: Q04DX002 (ip), vehicle: Klucel (hydroxypropylcellulose) (HPC)
# [2] = dose: 200.0 mg/kg/injection, schedule: Q04DX002 (ip), vehicle: Klucel (hydroxypropylcellulose) (HPC)
# [3] = dose: 100.0 mg/kg/injection, schedule: Q01DX001 (ip), vehicle: carboxymethylcellulose (CMC)
# [4] = dose: 200.0 mg/kg/injection, schedule: Q01DX001 (ip), vehicle: carboxymethylcellulose (CMC)
# [5] = dose: 400.0 mg/kg/injection, schedule: Q01DX001 (ip), vehicle: carboxymethylcellulose (CMC)
# [6] = dose: 100.0 mg/kg/injection, schedule: Q04DX003 (ip), vehicle: saline
# [7] = dose: 20.0 mg/kg/injection, schedule: Q01DX Z (ip), vehicle: carboxymethylcellulose (CMC)
# [8] = dose: 40.0 mg/kg/injection, schedule: Q01DX Z (ip), vehicle: carboxymethylcellulose (CMC)
# [9] = dose: 100.0 mg/kg/injection, schedule: Q01DX009 (ip), vehicle: Klucel (hydroxypropylcellulose) (HPC)
# [10] = dose: 100.0 mg/kg/injection, schedule: Q04DX003 (ip), vehicle: Klucel (hydroxypropylcellulose) (HPC)
# [11] = dose: 200.0 mg/kg/injection, schedule: Q01DX009 (ip), vehicle: Klucel (hydroxypropylcellulose) (HPC)
# [12] = dose: 200.0 mg/kg/injection, schedule: Q04DX003 (ip), vehicle: Klucel (hydroxypropylcellulose) (HPC)
# [13] = dose: 400.0 mg/kg/injection, schedule: Q04DX003 (ip), vehicle: Klucel (hydroxypropylcellulose) (HPC)
# [14] = dose: 100.0 mg/kg/injection, schedule: Q01DX001 (ip), vehicle: Klucel (hydroxypropylcellulose) (HPC)
# [15] = dose: 200.0 mg/kg/injection, schedule: Q01DX001 (ip), vehicle: Klucel (hydroxypropylcellulose) (HPC)
# [16] = dose: 400.0 mg/kg/injection, schedule: Q01DX001 (ip), vehicle: Klucel (hydroxypropylcellulose) (HPC)
# [17] = dose: 400.0 mg/kg/injection, schedule: Q01DX009 (ip), vehicle: Klucel (hydroxypropylcellulose) (HPC)
# [18] = dose: 100.0 mg/kg/injection, schedule: Q04DX002 (ip), vehicle: saline
# [19] = dose: 200.0 mg/kg/injection, schedule: Q04DX002 (ip), vehicle: saline
# [20] = dose: 400.0 mg/kg/injection, schedule: Q04DX002 (ip), vehicle: saline
smiles,measurement,setting,value
O=C(Nc1ccc(Br)cc1)Oc1ccccc1C(=O)OCc1ccccc1,T/C,[1],97 % of control
same,T/C,[2],87 % of control
c1ccc(-c2cccc[c]2[Hg][c]2ccccc2-c2ccccc2)cc1,T/C,[3],96 % of control
same,T/C,[4],93 % of control
same,T/C,[5],93 % of control
c1ccc2c(c1)c1c(c3ccccc32)CN2CCCC2C1 (stereo not drawn),T/C,"dose: 50.0 mg/kg/injection, schedule: Q01DX001 (ip), vehicle: carboxymethylcellulose (CMC)",105 % of control
same,T/C,[3],105 % of control
same,T/C,[4],92 % of control
same,T/C,[5],103 % of control
Cc1cc(Cl)c2ccccc2[n+]1C,T/C,[6],98 % of control
Nc1nc(=O)n(C2CC(O)C(CO)O2)cc1Br (stereo not drawn),T/C,[7],95 % of control
same,T/C,[8],101 % of control
same,T/C,"dose: 50.0 mg/kg/injection, schedule: Q01DX001 (ip), vehicle: saline",109 % of control
same,T/C,"dose: 80.0 mg/kg/injection, schedule: Q01DX Z (ip), vehicle: carboxymethylcellulose (CMC)",101 % of control
same,T/C,"dose: 100.0 mg/kg/injection, schedule: Q01DX001 (ip), vehicle: saline",105 % of control
same,T/C,"dose: 160.0 mg/kg/injection, schedule: Q01DX Z (ip), vehicle: carboxymethylcellulose (CMC)",106 % of control
same,T/C,"dose: 200.0 mg/kg/injection, schedule: Q01DX001 (ip), vehicle: saline",111 % of control
same,T/C,"dose: 400.0 mg/kg/injection, schedule: Q01DX001 (ip), vehicle: saline",117 % of control
Cc1ccc(C(=O)NS(=O)(=O)c2ccc(C)cc2)cc1,T/C,[9],91 % of control
same,T/C,[10],101 % of control
same,T/C,[11],105 % of control
same,T/C,[12],103 % of control
same,T/C,[13],104 % of control
Cc1ccc2[nH]c(=S)n(-c3ccccc3)c(=O)c2c1,T/C,"dose: 100.0 mg/kg/injection, schedule: Q04DX002 (ip), vehicle: saline with Tween-80",91 % of control
same,T/C,"dose: 200.0 mg/kg/injection, schedule: Q04DX002 (ip), vehicle: saline with Tween-80",91 % of control
same,T/C,"dose: 400.0 mg/kg/injection, schedule: Q04DX002 (ip), vehicle: saline with Tween-80",91 % of control
CC(=O)[O][Hg][c]1cc[c]([Hg][O]C(C)=O)s1,T/C,"dose: 3.0 mg/kg/injection, schedule: Q01DX009 (ip), vehicle: Klucel (hydroxypropylcellulose) (HPC)",91 % of control
same,T/C,"dose: 6.0 mg/kg/injection, schedule: Q01DX009 (ip), vehicle: Klucel (hydroxypropylcellulose) (HPC)",89 % of control
same,T/C,"dose: 12.5 mg/kg/injection, schedule: Q04DX003 (ip), vehicle: Klucel (hydroxypropylcellulose) (HPC)",100 % of control
OCCC1COc2ccccc2O1 (stereo not drawn),T/C,[3],97 % of control
same,T/C,[4],95 % of control
same,T/C,[5],103 % of control
CC1(C)CN=C(c2ccc([N+](=O)[O-])cc2)S1,T/C,[14],100 % of control
same,T/C,[15],102 % of control
same,T/C,[16],100 % of control
O=C(CSCCCCl)OCCSCCCCl,T/C,"dose: 17.5 mg/kg/injection, schedule: Q01DX Z (ip), vehicle: saline",93 % of control
same,T/C,"dose: 70.0 mg/kg/injection, schedule: Q01DX Z (ip), vehicle: saline",104 % of control
OCc1ccc(CO)cc1,T/C,"dose: 100.0 mg/kg/injection, schedule: Q01DX009 (ip), vehicle: saline sonified",100 % of control
same,T/C,"dose: 200.0 mg/kg/injection, schedule: Q01DX009 (ip), vehicle: saline sonified",94 % of control
same,T/C,"dose: 400.0 mg/kg/injection, schedule: Q01DX009 (ip), vehicle: saline sonified",103 % of control
CC(C)N1C(=O)c2cccc3c(Br)ccc(c23)C1=O,T/C,[10],96 % of control
same,T/C,[12],97 % of control
CN(N=O)C(=O)NCCSSCCNC(=O)N(C)N=O,T/C,"dose: 5.0 mg/kg/injection, schedule: Q01DX011 (ip), vehicle: carboxymethylcellulose (CMC)",107 % of control
same,T/C,"dose: 5.0 mg/kg/injection, schedule: Q01DX Z (ip), vehicle: carboxymethylcellulose (CMC)",104 % of control
same,T/C,"dose: 10.0 mg/kg/injection, schedule: Q01DX011 (ip), vehicle: carboxymethylcellulose (CMC)",102 % of control
same,T/C,"dose: 10.0 mg/kg/injection, schedule: Q01DX Z (ip), vehicle: carboxymethylcellulose (CMC)",104 % of control
same,T/C,"dose: 20.0 mg/kg/injection, schedule: Q01DX011 (ip), vehicle: carboxymethylcellulose (CMC)",112 % of control
same,T/C,[7],112 % of control
same,T/C,"dose: 40.0 mg/kg/injection, schedule: Q01DX011 (ip), vehicle: carboxymethylcellulose (CMC)",161 % of control
same,T/C,[8],119 % of control
COc1ccc(CNS(=O)(=O)c2ccc(C)cc2)cc1OC,T/C,[3],96 % of control
same,T/C,[4],110 % of control
same,T/C,[5],116 % of control
O=C(CNC(=O)c1ccc(Cl)c(Cl)c1)N/N=C/c1ccc(Cl)cc1,T/C,"dose: 50.0 mg/kg/injection, schedule: Q01DX009 (ip), vehicle: Klucel (hydroxypropylcellulose) (HPC)",93 % of control
same,T/C,[9],88 % of control
same,T/C,[11],98 % of control
Cc1cc(N(c2c(Cl)c(Cl)c(NS(=O)(=O)c3ccccc3)c(Cl)c2Cl)S(=O)(=O)c2ccccc2)cc(C)c1N,T/C,[14],98 % of control
same,T/C,[9],100 % of control
same,T/C,[15],95 % of control
same,T/C,[11],95 % of control
same,T/C,[16],90 % of control
same,T/C,[17],94 % of control
N#Cc1ccc(C#N)c2ccccc12,T/C,"dose: 100.0 mg/kg/injection, schedule: Q04DX003 (ip), vehicle: saline with Tween-80",96 % of control
same,T/C,"dose: 200.0 mg/kg/injection, schedule: Q04DX003 (ip), vehicle: saline with Tween-80",98 % of control
same,T/C,"dose: 400.0 mg/kg/injection, schedule: Q04DX003 (ip), vehicle: saline with Tween-80",96 % of control
O=C(O)CCC(=O)c1ccc2c3c1CCCC3CC2 (stereo not drawn),T/C,[1],107 % of control
same,T/C,[2],101 % of control
same,T/C,"dose: 400.0 mg/kg/injection, schedule: Q04DX002 (ip), vehicle: Klucel (hydroxypropylcellulose) (HPC)",93 % of control
CCC(NC(=O)CN)C(=O)O (stereo not drawn),T/C,"dose: 100.0 mg/kg/injection, schedule: Q01DX009 (ip), vehicle: saline",100 % of control and 107 % of control
same,T/C,[18],97 % of control and 101 % of control and 91 % of control
same,T/C,[6],93 % of control
same,T/C,"dose: 200.0 mg/kg/injection, schedule: Q01DX009 (ip), vehicle: saline",102 % of control and 92 % of control
same,T/C,[19],97 % of control and 105 % of control
same,T/C,"dose: 200.0 mg/kg/injection, schedule: Q04DX003 (ip), vehicle: saline",94 % of control
same,T/C,"dose: 400.0 mg/kg/injection, schedule: Q01DX009 (ip), vehicle: saline",102 % of control and 111 % of control
same,T/C,[20],108 % of control and 100 % of control and 118 % of control
same,T/C,"dose: 400.0 mg/kg/injection, schedule: Q04DX003 (ip), vehicle: saline",98 % of control
COc1ccc(COC(=O)Nc2ccc(Cl)c(Cl)c2)cc1OC,T/C,[9],95 % of control
same,T/C,[10],101 % of control
same,T/C,[11],88 % of control
same,T/C,[12],106 % of control
same,T/C,[17],95 % of control
same,T/C,[13],90 % of control
CCCCCCCCCCCC(=O)O.[Cr],T/C,"dose: 100.0 mg/kg/injection, schedule: Q01DX009 (ip), vehicle: other",93 % of control
same,T/C,"dose: 100.0 mg/kg/injection, schedule: Q04DX003 (ip), vehicle: other",97 % of control
same,T/C,"dose: 200.0 mg/kg/injection, schedule: Q01DX009 (ip), vehicle: other",95 % of control
same,T/C,"dose: 200.0 mg/kg/injection, schedule: Q04DX003 (ip), vehicle: other",102 % of control
same,T/C,"dose: 400.0 mg/kg/injection, schedule: Q01DX009 (ip), vehicle: other",92 % of control
same,T/C,"dose: 400.0 mg/kg/injection, schedule: Q04DX003 (ip), vehicle: other",91 % of control
COc1ccc2c(c1OC)C1C3CC=CC3C2C2=[N+]1CCc1cc3c(cc12)OCO3 (stereo not drawn),T/C,"dose: 1.56 mg/kg/injection, schedule: Q01DX009 (ip), vehicle: saline",102 % of control
same,T/C,"dose: 3.12 mg/kg/injection, schedule: Q01DX009 (ip), vehicle: saline",93 % of control
same,T/C,"dose: 6.25 mg/kg/injection, schedule: Q01DX009 (ip), vehicle: saline",98 % of control
same,T/C,"dose: 12.5 mg/kg/injection, schedule: Q01DX009 (ip), vehicle: saline",113 % of control
Nc1cc(=O)[nH]c(=S)[nH]1,T/C,[18],99 % of control
same,T/C,[19],92 % of control
same,T/C,[20],101 % of control
Cc1cnc(/N=C(\N)N2CCOCC2)nc1-c1ccccc1O,T/C,[1],88 % of control
same,T/C,[2],88 % of control
